Test [1] deals with ERRα ligand binding domain (ERRα-LBD) (Homo sapiens (Human), UniProt P11474). In words: ERRα AlphaScreen Assay. The test is classed as biochemical. The note with it: disruption of binding of ERRα-LBD protein to biotin-PGC1α-3 co-activator peptide; for IC50: read-out: mean pIC50 (converted). An outline of the steps: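 His-SUMO-tagged ERRα-LBD from E. coli (0.81 nM) preincubated 1 h at room temperature with compound, streptavidin donor and Ni-chelate acceptor beads (10 μg/mL each), then 2 h with 15 nM biotin-PGC1α-3 peptide (aa 202–220). Buffer: 50 mM Tris-HCl pH 7.5, 100 mM NaCl, 5 mM TCEP, 1% DMSO. Four-parameter IC50; mean pIC50 of replicate values.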
ERRα ligand binding domain (ERRα-LBD), sequence (P11474 193-421): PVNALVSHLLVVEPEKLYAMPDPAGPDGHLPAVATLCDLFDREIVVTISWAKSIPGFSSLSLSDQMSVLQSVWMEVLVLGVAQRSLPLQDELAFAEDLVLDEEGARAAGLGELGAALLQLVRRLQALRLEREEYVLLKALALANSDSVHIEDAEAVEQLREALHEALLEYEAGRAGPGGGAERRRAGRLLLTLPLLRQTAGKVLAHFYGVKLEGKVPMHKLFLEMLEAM
On the technique in general: In Alpha technology, singlet oxygen from a donor bead excites a nearby acceptor bead.

The target in the next test is full length ERRα (Homo sapiens (Human), UniProt P11474). In words: Full Length ERRα Reporter Gene Assay. The class given is cell-based. The note with it: SK-BR-3 cells, ERRα-RE luciferase reporter, overnight incubation; read-out: mean pIC50 (converted). The source says:
Full Length ERRα Reporter Gene Assay
A method was established to quantitatively screen the potency of compounds with inverse agonistic activity on the nuclear receptor ERRα of the human species. The assay allows intra-cellular screening of ERRα inverse agonists in SK-BR-3 cells using an over-expression construct coding full length ERRα and a reporter construct containing an ERRα Response Element (RE) and a luciferase gene for read out. The activity is expressed in log IC50 values and can be used to determine SAR of compound families or to de-select compounds.
In this assay, reporter cells are obtained by transient co-transfection of two constructs in SK-BR-3 cells using standard transfection techniques. The first construct contains a response element of the nuclear receptor ERRα (Plasmid pLP2175, Reporter construct ERRα-RE/luc2P, cloned variant of ERRα_v2_synthRE, Switchgear Genomics, Catalog Number S900089). This sequence drives the transcription of the luciferase reporter gene in response to binding of an ERRα protein encoded by the second construct (Plasmid pLP2124: full length ERRα expression construct using pcDNA3.1/Hygro(+) as background, Invitrogen Catalog Number V87020).
The day after transfection, cells were plated into 96 well plates, test compound was added and the plates were incubated overnight. Subsequently, the firefly luciferase activity was quantified using luciferase detection reagent and luminescence readout.
Detailed Assay Description
Transfection is performed on pre-seeded SK-BR-3 cells in a T175 flask. One transfected T175 flask is sufficient for seeding 3 to 4 MW96 plates the next day, depending on the confluency of the transfected cells.
Two different media are used in this protocol for cell treatment: 1) Culture medium, i.e. McCoy's 5a with phenol red (BioWhittaker Supplier Number 12-688F), 10% FBS and 1× Penstrep.; and, 2) Assay medium, i.e. McCoy's 5a Medium phenol red free (HyClone Product Code SH30270.01) with 2% Charcoal Stripped FBS and 1× Penstrep. Compound dilutions are prepared in assay medium.
Cells are seeded at least 2 days in advance to allow the cells to adhere well to flask before transfection. Cells should be 50-80% confluent at the day of transfection.
SKBR3 cells were transfected with the transcriptional reporter construct pLP2175 and the ERRα expression construct pLP2124 (as described above).
68 μL of Lipofectamine LTX transfection reagent (Invitrogen Catalog Number 15338-100) was added dropwise to 8.9 ml Opti-MEM I Reduced Serum Medium (Gibco Catalog Number 51985-026) and incubated at room temperature for 5 to 20 minutes. 8.9 ml of this reagent mixture was added to 22 μg pLP2175+22 μg pLP2124 (ratio 1:1 and total volume 10 ml), and incubated at room temperature for 25 minutes.
10 minutes before adding the transfection mix to SKBR3 cells in a T175 flask, the culture medium was refreshed with 20 mL culture medium. Subsequently, the 10 mL DNA-Opti-MEM-Lipofectamine mixture was gently added to the cells, followed by overnight (16-24 hours) incubation at 37° C. and 5% CO2.
To harvest SKBR3 cells from a T175 flask, first the medium was removed. Subsequently, cells were washed with Phosphate Buffered Saline (PBS) (Lonza), after which the PBS was removed. To dissociate the cells, 2 ml of TrypLE Express (Invitrogen) was added to the flask, followed by incubation at 37° C. for 5 minutes. The flask was tapped until cells were detached from the bottom. Cells were collected in 8 mL of culture medium (McCoy's 5α, 10% FBS, penstrep), to achieve a single cell suspension. After cell count, cells were spun down for 5 minutes at 300 g. Next cell pellets were re-suspended to 25000 cells/80 μl assay medium (McCoy's 5a phenol red free, 2% charcoal stripped FBS, penstrep).
For compound screening, the cells were harvested (as described above). 80 μL of cell suspension (25,000 cells) was plated per well into a white, flat bottom, tissue culture treated, 96 well screening plates (Greiner). […]

Each structure is given as a SMILES string.

full length ERRα, sequence (P11474 whole entry): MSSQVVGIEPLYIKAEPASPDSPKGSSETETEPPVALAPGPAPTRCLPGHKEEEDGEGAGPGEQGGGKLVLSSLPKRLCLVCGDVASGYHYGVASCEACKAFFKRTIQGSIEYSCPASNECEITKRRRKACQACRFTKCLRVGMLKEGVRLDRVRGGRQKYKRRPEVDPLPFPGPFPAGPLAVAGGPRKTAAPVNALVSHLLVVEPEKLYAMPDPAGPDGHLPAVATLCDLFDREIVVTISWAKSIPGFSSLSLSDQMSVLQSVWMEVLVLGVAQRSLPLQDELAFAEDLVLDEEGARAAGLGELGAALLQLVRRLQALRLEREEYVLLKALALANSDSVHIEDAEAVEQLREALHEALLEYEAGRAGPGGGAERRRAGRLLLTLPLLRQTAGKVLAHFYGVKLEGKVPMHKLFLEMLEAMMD

Take `COc1cc(C2CC(=O)Nc3n[nH]cc32)ccc1OCc1ccc(CC#N)cc1C(F)(F)F` (stereo not drawn) [Example 147, 2-[4-(2-methoxy-4-{6-oxo-2H,4H,5H,6H, 7H-pyrazolo[3,4-b]pyridin-4-yl}phenoxymethyl)-3-(trifluoromethyl)phenyl]acetonitrile]: the IC50 is 100 to 1000 nM in test [1] and at most 316 nM on full length ERRα.
Consider `COc1cc(C2CC(=O)Nc3n[nH]cc32)ccc1OCc1ccc(CCCO)cc1C(F)(F)F` (stereo not drawn) [Example 149, 4-(4-{[4-(3-hydroxypropyl)-2-(trifluoromethyl)phenyl]methoxy}-3-methoxyphenyl)-2H,4H,5H,6H, 7H-pyrazolo[3,4-b]pyridin-6-one], for which the “mean pIC50” value in test [1] is recorded as at least 8. Also, the IC50 on full length ERRα is at most 316 nM.
Take `COc1cc(C2CC(=O)Nc3n[nH]cc32)ccc1OCc1ccc(CCN)cc1C(F)(F)F` (stereo not drawn) [Example 150, 4-(4-{[4-(2-aminoethyl)-2-(trifluoromethyl)phenyl]methoxy}-3-methoxyphenyl)-2H,4H,5H,6H, 7H-pyrazolo[3,4-b]pyridin-6-one]: the results for the IC50 (in test [1]; at full length ERRα) were 100 to 1000 nM and at most 316 nM, respectively.
`COc1cc(C2CC(=O)Nc3n[nH]cc32)ccc1OCc1ccc(CCO)cc1C(F)(F)F` (stereo not drawn) [Example 155, 4-(4-{[4-(2-hydroxyethyl)-2-(trifluoromethyl)phenyl]methoxy}-3-methoxyphenyl)-2H,4H,5H,6H, 7H-pyrazolo[3,4-b]pyridin-6-one]: the “mean pIC50” value in test [1] is listed as at least 8. Moreover, the IC50 on full length ERRα was at most 316 nM.
Taken in the same sequence, the figures for `COc1cc(C2CC(=O)Nc3n[nH]nc32)ccc1OCc1ccc(CCO)cc1C(F)(F)F` (stereo not drawn) [Example 157, 7-(4-{[4-(2-hydroxyethyl)-2-(trifluoromethyl)phenyl]methoxy}-3-methoxyphenyl)-2H,4H,5H,6H, 7H-[1,2,3]triazolo[4,5-b]pyridin-5-one] were at least 8 and at most 316 nM.
Regarding `COc1cc(C2CC(=O)Nc3n[nH]cc32)ccc1OCc1ccc(C=O)cc1C(F)(F)F` (stereo not drawn) [Example 159, 4-[(2-methoxy-4-{6-oxo-2H,4H,5H,6H,7H-pyrazolo[3,4-b]pyridin-4-yl}phenoxy)methyl]-3-(trifluoromethyl)benzaldehyde], the figures for the IC50 (in test [1]; at full length ERRα) were 10 to 100 nM and at most 316 nM, respectively.
For the molecule `COc1cc(C2CC(=S)Nc3n[nH]cc32)ccc1OCc1ccccc1C(F)(F)F` (stereo not drawn) [Example 166, 4-(3-methoxy-4-{[2-(trifluoromethyl)phenyl]methoxy}phenyl)-2H,4H,5H,6H,7H-pyrazolo[3,4-b]pyridine-6-thione], in test [1], the “mean pIC50” value is given as at least 8. The IC50 at full length ERRα is at most 316 nM.
Taken in the same sequence, the figures for `COc1cc(-c2cc(=O)[nH]c3n[nH]cc23)ccc1OCc1ccccc1C(F)(F)F` [Example 169, 4-(3-methoxy-4-{[2-(trifluoromethyl)phenyl]methoxy}phenyl)-2H,6H,7H-pyrazolo[3,4-b]pyridin-6-one] were at least 8 and at most 316 nM.
The corresponding values for `COc1ccc(COc2ccc(-c3cc(=O)[nH]c4n[nH]cc34)cc2OC)c(C(F)(F)F)c1` [Example 170, 4-(3-methoxy-4-{[4-methoxy-2-(trifluoromethyl)phenyl]methoxy}phenyl)-2H,6H, 7H-pyrazolo[3,4-b]pyridin-6-one] are at least 8 and at most 316 nM.
Taken in the same sequence, the figures for `COc1cc(-c2cc(=O)[nH]c3n[nH]cc23)ccc1OCc1ccc(C(C)=O)cc1C(F)(F)F` [Example 174, 4-(4-{[4-acetyl-2-(trifluoromethyl)phenyl]methoxy}-3-methoxyphenyl)-2H,6H, 7H-pyrazolo[3,4-b]pyridin-6-one] were at least 8 and at most 316 nM.
In the case of `CCc1ccc(COc2ccc(-c3cc(=O)[nH]c4n[nH]cc34)cc2OC)c(C(F)(F)F)c1` [Example 175, 4-(4-{[4-ethyl-2-(trifluoromethyl)phenyl]methoxy}-3-methoxyphenyl)-2H,6H, 7H-pyrazolo[3,4-b]pyridin-6-one], the “mean pIC50” value in test [1] is at least 8. The IC50 on full length ERRα was at most 316 nM.
The corresponding values for `COc1cc(-c2cc(=O)[nH]c3n[nH]cc23)ccc1OCc1ccc(CCO)cc1C(F)(F)F` [Example 176, 4-(4-{[4-(2-hydroxyethyl)-2-(trifluoromethyl)phenyl]methoxy}-3-methoxyphenyl)-2H, 6H, 7H-pyrazolo[3,4-b]pyridin-6-one] are at least 8 and at most 316 nM.
Taken in the same sequence, the figures for `COc1cc(-c2cc(=O)[nH]c3n[nH]cc23)ccc1OCc1cccc(OC)c1C(F)(F)F` [Example 177, 4-(3-methoxy-4-{[3-methoxy-2-(trifluoromethyl)phenyl]methoxy}phenyl)-2H, 6H, 7H-pyrazolo[3,4-b]pyridin-6-one] were at least 8 and at most 316 nM.
The corresponding values for `COc1ccc(C(F)(F)F)c(COc2ccc(-c3cc(=O)[nH]c4n[nH]cc34)cc2OC)c1` [Example 178, 4-(3-methoxy-4-{[5-methoxy-2-(trifluoromethyl)phenyl]methoxy}phenyl)-2H,6H,7H-pyrazolo[3,4-b]pyridin-6-one] are at least 8 and at most 316 nM.
With `COc1cc(-c2cc(=O)[nH]c3n[nH]cc23)ccc1OCc1ccc(F)cc1C(F)(F)F` [Example 179, 4-(4-{[4-fluoro-2-(trifluoromethyl)phenyl]methoxy}-3-methoxyphenyl)-2H,6H, 7H-pyrazolo[3,4-b]pyridin-6-one], the “mean pIC50” value in test [1] is reported as at least 8. In addition, on full length ERRα, the IC50 was at most 316 nM.

For the origin of these results see patent publication US12527774B2, “Estrogen-related receptor alpha modulators” (LEAD PHARMA HOLDING B.V., priority 2019, dated 2026).
